Here are results for three compounds from patent EP2628732A1, “Novel crystalline form of rilpivirine hydrochloride” (Sandoz AG, priority 2012, dated 2013).

The Solubility is the dissolved amount per volume that the medium holds.

SMILES strings stand for the structures.

A short description of data set [1]: Solubility determination in 0.01 N aqueous HCl (gravimetric, suspensions stirred, sampled after 30 min). The format is physicochemical. As to conditions: 0.01 N aqueous HCl at 25 ± 0.1 °C, samples taken after 30 min, monohydrochloride. The protocol: The solubility data of form E of the present invention and forms A and C of EP1632232 B1 in 0.01 N aqueous HCl at 25 ± 0.1 °C are presented in table 1. Table 1: Solubility data in 0.01 N aqueous HCl at 25 ± 0.1 °C Suspensions of forms A, C and E in 0.01 N aqueous HCl were stirred in closed vessels with a diameter of 25 mm in a thermostatic water bath at 25 ± 0.1 °C. Before the solute was added the solvent was equilibrated to the temperature. Three samples of each modification were taken with […] filter holders attached to volumetric pipettes (2 mL) via a small glass tube after 30 min. They were sucked through Millipore membrane filters (0.45 μm) and 2 mL of the clear solution were poured in vessels which had been dried and tared before. The hydrochloric acid was evaporated in a drying chamber at 60 °C for approximately 15 h before the temperature was further increased to 80 °C for approximately 3 h. To remove residue water, the vessels were subsequently dried at 110 °C and 60 mbar for approximately 3 h. Afterwards the vials with the residue were cooled to room temperature in an exsiccator and weighed on an analysis balance (Mettler AT250). The difference in weight to the tare weight was then measured to determine the solubilities.

The nature of data set [2]: Water content at defined relative humidity. The data set is classed as physicochemical.

Regarding `Cc1cc(C=CC#N)cc(C)c1Nc1ccnc(Nc2ccc(C#N)cc2)n1.Cl` [Form A, 4-[[4-[[4-(2-Cyanoethenyl)-2,6-dimethylphenyl]amino]-2-pyrimidinyl]amino]benzonitrile monohydrochloride], in data set [1] (listed as A), the Solubility was 80 µg/mL.

In data set [1] (listed as C), `Cc1cc(C=CC#N)cc(C)c1Nc1ccnc(Nc2ccc(C#N)cc2)n1.Cl` [Form C, 4-[[4-[[4-(2-Cyanoethenyl)-2,6-dimethylphenyl]amino]-2-pyrimidinyl]amino]benzonitrile monohydrochloride] displayed a Solubility of 100 µg/mL.

As to `Cc1cc(C=CC#N)cc(C)c1Nc1ccnc(Nc2ccc(C#N)cc2)n1.Cl` [Form E, 4-[[4-[[4-(2-Cyanoethenyl)-2,6-dimethylphenyl]amino]-2-pyrimidinyl]amino]benzonitrile monohydrochloride], the Solubility in data set [1] (listed as E) was 270 µg/mL. The water result in data set [2] (at a relative humidity of about 0 %) is on record as “about 0%”; in data set [2] (at a relative humidity of about 90 %), “about 0.8%”.
